Test results: patent publication US9593149B2, “Amylin and calcitonin receptor agonist” (Novo Nordisk A/S, priority 2014, dated 2017)
Numbered stars: 1 amine (or outer) side, 2 acyl side, 3 side chain; on linkers, the order of the positions; unused ones are H or OH. Side chains are listed from the residue outwards. Peptide text beside a SMILES is read from it. * marks the point of attachment. C20 diacid = O=C(O)CCCCCCCCCCCCCCCCCCC(=O)*; C18 diacid = O=C(O)CCCCCCCCCCCCCCCCC(=O)*; γGlu = O=C(O)[C@H](CCC(=O)[*:2])N[*:1]

Legend:
[1] = Assay (IV) determination of solubility; format: physicochemical
Experimental: Assay (IV)—Determination of Solubility
The mimylin peptide was dissolved in water at ˜500 nmol/ml and mixed 1:1 with a series of buffers (100 mM glycylglycine pH 3.0, 100 mM glycylglycine pH 4.0, 100 mM glycylglycine pH 5.0, 100 mM bistrispropane pH 6.0, 100 mM bistrispropane pH 6.5, 100 mM bistrispropane pH 7.0, 100 mM bistrispropane pH 7.5, 100 mM bistrispropane pH 8.0).

[2] = molecular target: T1, human calcitonin (a) receptor, BHK570 cells (Homo sapiens, UniProt P30988); experiment: Assay (II)a functional CRE-luciferase assay with albumin, human calcitonin receptor; format: cell-based; conditions: Tested with HSA; read-out: hCTR funct. EC50
T1 construct: host or cells: BHK570
T1 sequence (P30988 25-474): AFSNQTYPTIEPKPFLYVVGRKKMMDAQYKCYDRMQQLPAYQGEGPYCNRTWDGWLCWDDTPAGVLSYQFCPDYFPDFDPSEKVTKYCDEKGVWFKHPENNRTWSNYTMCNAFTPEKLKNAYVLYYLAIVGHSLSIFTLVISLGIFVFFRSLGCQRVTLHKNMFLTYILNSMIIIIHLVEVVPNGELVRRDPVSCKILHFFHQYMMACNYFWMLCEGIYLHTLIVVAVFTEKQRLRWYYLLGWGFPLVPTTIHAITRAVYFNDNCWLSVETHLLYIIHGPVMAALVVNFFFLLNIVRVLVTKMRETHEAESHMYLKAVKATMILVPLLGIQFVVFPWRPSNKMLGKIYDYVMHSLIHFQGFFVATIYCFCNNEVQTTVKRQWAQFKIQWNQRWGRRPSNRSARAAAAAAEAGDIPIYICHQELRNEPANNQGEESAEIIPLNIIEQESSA
In short: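 BHK570 cells stably carry a CRE-luciferase reporter and the calcitonin receptor; co-transfected RAMP-3 gives the amylin 3(a) receptor line. Cells were treated for 3 h at 37 °C in DMEM with 10% FBS and 10 mM Hepes, pH 7.4. cAMP-driven luciferase was read by LucLite luminescence after 30 min at RT.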

[3] = molecular target: T2, rat amylin receptor (rat calcitonin receptor + rat RAMP 3) (Rattus norvegicus, UniProt P32214+Q9JJ73); experiment: Assay (VI) binding to the rat amylin receptor (membrane); conditions: membranes; read-out: rAmylin-R binding IC50
T2 construct: expressed in transfected cells; host or cells: BHK tk'ts 13 (transient, FuGENE 6)
T2 sequence (P32214 25-479 isoform P32214-2 limits assumed): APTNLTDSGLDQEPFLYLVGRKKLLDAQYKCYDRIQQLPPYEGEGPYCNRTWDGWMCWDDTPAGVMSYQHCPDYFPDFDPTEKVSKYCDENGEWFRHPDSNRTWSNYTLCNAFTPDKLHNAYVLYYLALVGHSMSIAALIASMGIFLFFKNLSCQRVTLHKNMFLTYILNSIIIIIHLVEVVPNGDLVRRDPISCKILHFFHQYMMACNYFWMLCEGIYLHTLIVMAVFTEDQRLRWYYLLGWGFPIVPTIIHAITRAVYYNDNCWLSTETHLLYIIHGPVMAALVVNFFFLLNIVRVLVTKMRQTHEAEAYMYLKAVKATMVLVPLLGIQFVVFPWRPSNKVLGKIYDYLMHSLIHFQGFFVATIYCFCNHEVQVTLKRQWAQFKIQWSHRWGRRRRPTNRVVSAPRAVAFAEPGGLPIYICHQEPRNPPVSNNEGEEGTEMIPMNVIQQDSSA
T2 sequence (Q9JJ73 23-147 partner): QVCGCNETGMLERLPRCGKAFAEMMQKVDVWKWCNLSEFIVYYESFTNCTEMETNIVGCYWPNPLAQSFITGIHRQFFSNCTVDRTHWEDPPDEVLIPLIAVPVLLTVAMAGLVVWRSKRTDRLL
Experimental: The assay was performed as described above (Assay (V)—Determination of binding to the human amylin receptor) with the exception that we used membranes prepared from BHK tk'ts 13 cells that were transiently transfected with the rat calcitonin receptor rat RAMP 3 at an equimolar ratio […]. The BHK tk'ts 13 cells were transiently transfected with rat calcitonin receptor using FuGENE® 6 (Roche), according to the manufacturer's recommendations. Cells were grown in DMEM with 10% FBS and 1% Pen/Strep. Approximately 48 hours after transfection, the cells were harvested and membranes were prepared.

rat calcitonin receptor = molecular target: T3, rat calcitonin receptor (Rattus norvegicus, UniProt P32214); experiment: Assay (VIII) binding to the rat calcitonin receptor; conditions: membranes; read-out: rCT-R binding IC50
T3 construct: expressed in transfected cells; host or cells: BHK tk'ts 13 (transient, FuGENE 6)
T3 sequence (P32214 25-479 isoform P32214-2 limits assumed): T2 sequence (P32214 25-479 isoform P32214-2 limits assumed)
In short: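 Competition binding on membranes from BHK tk'ts 13 cells transiently transfected with rat calcitonin receptor, otherwise run as the human receptor assay. Plates washed in cold HBSS, lysed in 0.1 M NaOH/1% SDS and scintillation-counted. IC50 from one-site competition fit as affinity measure.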

Solubility ([1]; pH 3.0)	Solubility ([1]; pH 4.0)	Solubility ([1]; pH 5.0)	Solubility ([1]; pH 6.0)	Solubility ([1]; pH 6.5)	Solubility ([1]; pH 7.0)	Solubility ([1]; pH 7.5)	Solubility ([1]; pH 8.0)	EC50 [2] [nM]	solubility at 18 h ([1]; bistrispropane buffer, pH 6.5) [µM]	solubility at 18 h ([1]; bistrispropane buffer, pH 7.5) [µM]	solubility at 18 h ([1]; bistrispropane buffer, pH 6.0) [µM]	solubility at 18 h ([1]; bistrispropane buffer, pH 7.0) [µM]	solubility at 18 h ([1]; bistrispropane buffer, pH 8.0) [µM]	solubility at 18 h ([1]; glycylglycine buffer, pH 3.0) [µM]	solubility at 18 h ([1]; glycylglycine buffer, pH 4.0) [µM]	solubility at 18 h ([1]; glycylglycine buffer, pH 5.0) [µM]	IC50 [3] [nM]	IC50 (rat calcitonin receptor) [nM]	Structure (SMILES)
≧200 μM	≧200 μM	≧200 μM	≧200 μM	≧200 μM	≧200 μM	≧200 μM	≧200 μM												CC(C)C[C@H](NC(=O)[C@H](C)NC(=O)[C@H](C)NC(=O)[C@@H](NC(=O)[C@H](CO)NC(=O)[C@H](CC(C)C)NC(=O)[C@H](CCC(=O)O)NC(=O)[C@H](CO)NC(=O)[C@H](C)NC(=O)[C@H](CCC(=O)O)NC(=O)CCCCCCCCCCCCCCCCC(=O)O)[C@@H](C)O)C(=O)NCC(=O)N[C@@H](CCCNC(=N)N)C(=O)N[C@@H](CC(C)C)C(=O)N[C@@H](CO)C(=O)N[C@@H](C)C(=O)N[C@@H](CCC(=O)O)C(=O)N[C@@H](CC(C)C)C(=O)N[C@@H](Cc1cnc[nH]1)C(=O)N[C@@H](CCC(=O)O)C(=O)N[C@@H](CC(C)C)C(=O)N[C@@H](C)C(=O)N[C@H](C(=O)N[C@@H](CC(C)C)C(=O)N1CCC[C@H]1C(=O)N[C@@H](CCCNC(=N)N)C(=O)N[C@H](C(=O)N[C@@H](CCC(=O)O)C(=O)N[C@H](C(=O)NCC(=O)N1CCC[C@H]1C(=O)N[C@@H](CCC(=O)O)C(=O)N[C@@H](CO)C(=O)N1CCC[C@H]1C(N)=O)[C@@H](C)O)[C@@H](C)O)[C@@H](C)O [Ex. #2, [N-terminal(C18 diacid)]mimylin] ({C18 diacid}-EASELSTAALGRLSAELHELATLPRTETGPESP-NH2)
								0.051	≥ 200	≥ 200	≥ 200	≥ 200	≥ 200	≥ 200	≥ 200	≥ 200	0.025	0.044	CC(C)C[C@H](NC(=O)[C@H](C)NC(=O)[C@H](C)NC(=O)[C@@H](NC(=O)[C@H](CO)NC(=O)[C@H](CC(C)C)NC(=O)[C@H](CCC(=O)O)NC(=O)[C@H](CO)NC(=O)[C@H](C)NC(=O)[C@H](C)NC(=O)CC[C@H](NC(=O)CCCCCCCCCCCCCCCCCCC(=O)O)C(=O)O)[C@@H](C)O)C(=O)NCC(=O)N[C@@H](CCCNC(=N)N)C(=O)N[C@@H](CC(C)C)C(=O)N[C@@H](CO)C(=O)N[C@@H](C)C(=O)N[C@@H](CCC(=O)O)C(=O)N[C@@H](CC(C)C)C(=O)N[C@@H](Cc1c[nH]cn1)C(=O)N[C@@H](CCC(=O)O)C(=O)N[C@@H](CC(C)C)C(=O)N[C@@H](C)C(=O)N[C@H](C(=O)N[C@@H](Cc1ccc(O)cc1)C(=O)N1CCC[C@H]1C(=O)N[C@@H](CCCNC(=N)N)C(=O)N[C@H](C(=O)N[C@@H](CCC(=O)O)C(=O)N[C@H](C(=O)NCC(=O)N[C@@H](CO)C(=O)NCC(=O)N[C@@H](CO)C(=O)N1CCC[C@H]1C(N)=O)[C@@H](C)O)[C@@H](C)O)[C@@H](C)O [compound 57, [N-terminal(C20 diacid-gGlu), 1A, 23Y, 30S, 31G]mimylin] ({C20 diacid-γGlu}-AASELSTAALGRLSAELHELATYPRTETGSGSP-NH2)
								0.037	≥ 200	≥ 200	≥ 200	≥ 200	≥ 200	≥ 200	≥ 200	≥ 200	0.046	0.01	CC(=O)N[C@@H](C)C(=O)N[C@@H](CO)C(=O)N[C@@H](CCCCNC(=O)CC[C@H](NC(=O)CCCCCCCCCCCCCCCCCCC(=O)O)C(=O)O)C(=O)N[C@@H](CC(C)C)C(=O)N[C@@H](CO)C(=O)N[C@H](C(=O)N[C@@H](C)C(=O)N[C@@H](C)C(=O)N[C@@H](CC(C)C)C(=O)NCC(=O)N[C@@H](CCCNC(=N)N)C(=O)N[C@@H](CC(C)C)C(=O)N[C@@H](CO)C(=O)N[C@@H](C)C(=O)N[C@@H](CCC(=O)O)C(=O)N[C@@H](CC(C)C)C(=O)N[C@@H](Cc1c[nH]cn1)C(=O)N[C@@H](CCC(=O)O)C(=O)N[C@@H](CC(C)C)C(=O)N[C@@H](C)C(=O)N[C@H](C(=O)N[C@@H](CC(C)C)C(=O)N1CCC[C@H]1C(=O)N[C@@H](CCCNC(=N)N)C(=O)N[C@H](C(=O)N[C@@H](CCC(=O)O)C(=O)N[C@H](C(=O)NCC(=O)N[C@@H](CO)C(=O)NCC(=O)N[C@@H](CO)C(=O)N1CCC[C@H]1C(N)=O)[C@@H](C)O)[C@@H](C)O)[C@@H](C)O)[C@@H](C)O [compound 68, [N-terminal(acetyl), des1, 4K(C20 diacid-gGlu), 30S, 31G]mimylin] (Ac-ASK([γGlu-C20 diacid])LSTAALGRLSAELHELATLPRTETGSGSP-NH2)
								0.022	≥ 200	≥ 200	≥ 200	≥ 200	≥ 200	≥ 200	≥ 200	≥ 200	0.162	0.072	CC(C)C[C@H](NC(=O)[C@H](CCC(=O)O)NC(=O)[C@H](C)NC(=O)[C@@H](NC(=O)[C@H](CC(C)C)NC(=O)[C@H](CCCNC(=N)N)NC(=O)CNC(=O)[C@H](CC(C)C)NC(=O)[C@@H](NC(=O)[C@H](C)NC(=O)[C@@H](NC(=O)[C@@H](NC(=O)[C@H](CC(C)C)NC(=O)[C@H](CCC(=O)O)NC(=O)[C@H](CO)NC(=O)[C@H](C)NC(=O)CC[C@H](NC(=O)CCCCCCCCCCCCCCCCC(=O)O)C(=O)O)[C@@H](C)O)[C@@H](C)O)C(C)C)[C@@H](C)O)C(=O)N[C@@H](Cc1c[nH]cn1)C(=O)N[C@@H](CCC(=O)O)C(=O)N[C@@H](CC(C)C)C(=O)N[C@@H](CCC(=O)O)C(=O)N[C@H](C(=O)N[C@@H](CC(C)C)C(=O)N1CCC[C@H]1C(=O)N[C@@H](CCCNC(=N)N)C(=O)N[C@H](C(=O)N[C@@H](CCC(=O)O)C(=O)N[C@H](C(=O)NCC(=O)N[C@H](C(=O)NCC(=O)N[C@H](C(=O)N1CCC[C@H]1C(N)=O)[C@@H](C)O)[C@@H](C)O)[C@@H](C)O)[C@@H](C)O)[C@@H](C)O [compound 105, [N-terminal(C18 diacid-gGlu), des1, 6T, 9V, 14T, 21E, 30T, 31G, 32T]mimylin] ({C18 diacid-γGlu}-ASELTTAVLGRLTAELHELETLPRTETGTGTP-NH2)
